According to patent US7628991B2, “Use of Lactobacillus farciminis for the prevention or treatment of digestive pathologies” (Institute National de la Recherche Agronomique (INRA), priority 2002, dated 2009):

Tests used:
[1] = tested on: colonic inflammation induced by TNBS/ethanol; assay: Macroscopic lesion score (MLS) of the colon, TNBS/ethanol-induced colitis (Example 1); type: in vivo, WISTAR rats; settings: rats instilled with TNBS/ethanol, 4 days after instillation; daily intracolonic infusion; SNP 1 mg/kg/day, Hb 200 mg/kg/day
Text: (§1) This colitis is characterized by an increase in myeloperoxidase (MPO) activity, a marker of the degree of infiltration of polynuclear neutrophils in the colonic mucosa, and by the increase in the macroscopic lesion score (MLS) taking into account the seriousness and the extent of the macroscopic lesions appearing, the presence and seriousness of adherences and the presence or nonpresence of diarrhea in the colon.
For the study of the effects of SNP, 7 groups of WISTAR rats of 200-250 grams were provided, under anesthetic, with an intracolonic catheter (+2 cm from the caeco-colonic junction) exteriorized at the level of the dorsoscapular region. At D+5, the rats receive an intracolonic instillation of 80 mg/kg/day of TNBS/ethanol (groups 4-7) or of a 0.9% NaCl solution (groups 1-3). 4 hours after the instillation, the rats are infused at a flow rate of 250 μl/hour with 1 mg/kg/day of SNP (groups 2 and 5), or 200 mg/kg/day of Hb (groups 3 and 7), or an SNP+Hb mixture (group 6), or a 0.9% NaCl solution (groups 1 and 4), for 4 days. […]
The macroscopic lesion score (MLS) is determined on isolated colonic samples as described by WALLACE et al., (Gastroenterology, 102, 18-27, 1992) according to the assessment grid below: […]

[2] = tested on: colonic inflammation induced by TNBS/ethanol; assay: Myeloperoxidase (MPO) activity of the colon wall, TNBS/ethanol-induced colitis (Example 1); type: in vivo, WISTAR rats; settings: rats without TNBS/ethanol (0.9% NaCl instillation); intracolonic infusion for 4 days
Text: as §1
The effects of a treatment with a nitric oxide donor, sodium nitroprusside (SNP), or with L. farciminis on a TNBS-induced colitis in rats were compared. Moreover, the effective role of exogenous nitric oxide in these effects was evaluated using an NO scavenger, hemoglobin (Hb). […]
The myeloperoxidase (MPO) activity is determined on colon samples isolated according to the protocol described by BRADLEY et al. (J. Invest. Dermatol., 78, 206-209, 1982). […]
The MPO activity is determined by spectrophotometry. […] The changes in absorbance. (450 nm, 25° C.) were determined by kinetic spectrophotometry of 2 minutes, according to the balanced equation for the enzymatic reaction catalyzed by MPO: H2O2+Cl^−=H2O+HOCl (orange color), and expressed as MPO units.
One MPO activity unit is defined as the quantity of MPO degrading 1 μmol of hydrogen peroxide per minute per milliliter at 25° C. […]

hemoglobin [Hb]
Macroscopic lesion score (MLS) [1]: 5.8±1.3
MPO activity of the colon wall [2]: 426±117 MPO U/g of proteins
